Source: ChEMBL document CHEMBL1201862, “PubChem BioAssay data set” (2004)
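Protocol summary: plate cells (96-well), add compound at 5 concentrations, incubate 48 h, interpolate endpoints linearly. GI50: concentration for 50% inhibition of growth.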 The source made the active and inactive calls. No stated cut-off is given here; in the data, active = GI50 up to about 1.1 µM and inactive = higher.

How the values were obtained:
Assay in all cases: NCI tumour cell line growth inhibition, 48 h
786-0 = test system: 786-0
DU-145 = test system: DU-145
CAKI-1 = test system: CAKI-1
NCI-H460 = test system: NCI-H460
Hs-578T = test system: Hs-578T
UACC-257 = test system: UACC-257
SW-620 = test system: SW-620
SNB-19 = test system: SNB-19
OVCAR-3 = test system: OVCAR-3
K562 = test system: K562
NCI-H522 = test system: NCI-H522
M14 = test system: M14
IGROV-1 = test system: IGROV-1
A498 = test system: A498
RPMI-8226 = test system: RPMI-8226
A549 = test system: A549
SNB-75 = test system: SNB-75
UACC-62 = test system: UACC-62
HOP-62 = test system: HOP-62
U-251 = test system: U-251

Compound | GI50 (786-0) | GI50 (DU-145) | GI50 (CAKI-1) | GI50 (NCI-H460) | GI50 (Hs-578T) | GI50 (UACC-257) | GI50 (SW-620) | GI50 (SNB-19) | GI50 (OVCAR-3) | GI50 (K562) | GI50 (NCI-H522) | GI50 (M14) | GI50 (IGROV-1) | GI50 (A498) | GI50 (RPMI-8226) | GI50 (A549) | GI50 (SNB-75) | GI50 (UACC-62) | GI50 (HOP-62) | GI50 (U-251)
O=C1c2ccccc2NC(c2cc(Cl)cc(Cl)c2O)N1CCc1ccccn1 (stereo not drawn) | 60.1 µM (inactive) | 46.7 µM (inactive) | > 100 µM (inactive) | 56.2 µM (inactive) | 55.8 µM (inactive) | 97.9 µM (inactive) | 76.7 µM (inactive) | 88.9 µM (inactive) | > 100 µM (inactive) | > 100 µM (inactive) | 41.9 µM (inactive) | 64.4 µM (inactive) | > 100 µM (inactive) | > 100 µM (inactive) | 34.8 µM (inactive) | 48.6 µM (inactive) | 42.6 µM (inactive) | > 100 µM (inactive) | > 100 µM (inactive) | 39.8 µM (inactive)
Nc1ccc2c(c1)Nc1c3ccccc3nc3cccc-2c13 | 1.21 µM (inactive) | 1.59 µM (inactive) | 1.54 µM (inactive) | 1.02 µM (active) | 2.03 µM (inactive) | 2 µM (inactive) | 0.585 µM (active) | 1.64 µM (inactive) | 1.72 µM (inactive) | 0.416 µM (active) | 1.55 µM (inactive) | 2.12 µM (inactive) | 1.25 µM (inactive) | 1.79 µM (inactive) | 1.84 µM (inactive) | 1.36 µM (inactive) | 1.4 µM (inactive) | 1.82 µM (inactive) | 1.3 µM (inactive) | 1.53 µM (inactive)
COC1(OC)C=CC(=O)C=C1 | 1.9 µM (inactive) | 3.48 µM (inactive) | 3.61 µM (inactive) | 6.61 µM (inactive) | 9.84 µM (inactive) | 2.4 µM (inactive) | 1.45 µM (inactive) | 15.7 µM (inactive) | 4.2 µM (inactive) | 2.2 µM (inactive) | 0.149 µM (active) | 3.3 µM (inactive) | 1.72 µM (inactive) | 32.6 µM (inactive) | 2.74 µM (inactive) | 5.85 µM (inactive) | 11 µM (inactive) | 1.82 µM (inactive) | 10.6 µM (inactive) | 1.78 µM (inactive)
CN(CCO)CC(=O)CC(O)(C(F)(F)F)C(F)(F)F | 32.6 µM (inactive) | 42.7 µM (inactive) | 30.1 µM (inactive) | 27.5 µM (inactive) | 21.3 µM (inactive) | 37.6 µM (inactive) | 34.9 µM (inactive) | 41.4 µM (inactive) | 26.5 µM (inactive) | 42.4 µM (inactive) | 40.2 µM (inactive) | 32.5 µM (inactive) | 43.2 µM (inactive) | 44.6 µM (inactive) | 32.1 µM (inactive) | 30.4 µM (inactive) | 14.5 µM (inactive) | 35.6 µM (inactive) | – | 28.6 µM (inactive)
NC1=C(Cl)C(=O)c2c(O)ccc(O)c2C1=O | 8.93 µM (inactive) | 2.2 µM (inactive) | 16.5 µM (inactive) | 1.91 µM (inactive) | 8.3 µM (inactive) | 1.6 µM (inactive) | 3.15 µM (inactive) | 3.89 µM (inactive) | 2.22 µM (inactive) | 22.4 µM (inactive) | 14.6 µM (inactive) | 1.85 µM (inactive) | 5.83 µM (inactive) | 14.1 µM (inactive) | 4.75 µM (inactive) | 2.2 µM (inactive) | 5.41 µM (inactive) | 1.59 µM (inactive) | 5.36 µM (inactive) | 4.12 µM (inactive)
CCN(CC)C(=S)N/N=C(/c1ccccc1)c1ccccn1 | 0.145 µM (active) | 0.402 µM (active) | 0.805 µM (active) | 0.0783 µM (active) | > 37.6 µM (inactive) | 0.107 µM (active) | 0.121 µM (active) | 2.84 µM (inactive) | 0.0288 µM (active) | 0.185 µM (active) | 0.0984 µM (active) | 0.0618 µM (active) | 0.195 µM (active) | 0.311 µM (active) | 0.11 µM (active) | 0.349 µM (active) | 0.875 µM (active) | – | 0.292 µM (active) | 0.0995 µM (active)
CC1CCCC2(CC[N+](C)(CCC[N+](C)(C)C)CC2)C1 (stereo not drawn) | > 100 µM (inactive) | > 100 µM (inactive) | > 100 µM (inactive) | > 100 µM (inactive) | > 100 µM (inactive) | > 100 µM (inactive) | > 100 µM (inactive) | > 100 µM (inactive) | > 100 µM (inactive) | > 100 µM (inactive) | > 100 µM (inactive) | > 100 µM (inactive) | > 100 µM (inactive) | > 100 µM (inactive) | > 100 µM (inactive) | > 100 µM (inactive) | > 100 µM (inactive) | > 100 µM (inactive) | > 100 µM (inactive) | > 100 µM (inactive)
N=C(N)NCCNC(=N)N | > 100 µM (inactive) | > 100 µM (inactive) | > 100 µM (inactive) | > 100 µM (inactive) | > 100 µM (inactive) | > 100 µM (inactive) | > 100 µM (inactive) | > 100 µM (inactive) | > 100 µM (inactive) | > 100 µM (inactive) | > 100 µM (inactive) | > 100 µM (inactive) | > 100 µM (inactive) | > 100 µM (inactive) | > 100 µM (inactive) | > 100 µM (inactive) | 89.9 µM (inactive) | > 100 µM (inactive) | > 100 µM (inactive) | > 100 µM (inactive)
